Data reported in US11779564B2, “Methods and compositions for treating bile acid diarrhea, diarrhea associated with small intestine resection or gallbladder removal, and short bowel syndrome” (NAPO PHARMACEUTICALS, INC., priority 2017, dated 2023).

Key:
[1] = in vivo, cited from earlier work
[2] = tested on: chronic diarrhea in patient with SBS; assay: Case report: SBS patient with chronic diarrhea (Example 1); settings: same patient, attempted for 12 years before crofelemer

| Compound | systemic bioavailability ([1]; human) | absorption from the GI tract [1] | tolerability [1] | effectiveness in relieving diarrhea symptoms (earlier treatments) [2] |
| --- | --- | --- | --- | --- |
| crofelemer | virtually no systemic bioavailability | little or no absorption | well tolerated |  |
| CN(C)C(=O)C(CCN1CCC(O)(c2ccc(Cl)cc2)CC1)(c1ccccc1)c1ccccc1 [loperamide] |  |  |  | None of which were effective |
| CCOC(=O)C1(c2ccccc2)CCN(CCC(C#N)(c2ccccc2)c2ccccc2)CC1 [diphenoxylate] |  |  |  | None of which were effective |
| CN1[C@@H]2CC[C@H]1C[C@@H](OC(=O)C(CO)c1ccccc1)C2 (stereo partly shown) [atropine] |  |  |  | None of which were effective |
| COc1ccc2c3c1O[C@H]1[C@@H](O)C=C[C@H]4[C@@H](C2)N(C)CC[C@@]341 [codeine] |  |  |  | None of which were effective |
